What was measured:
Type in all cases: in vivo
[1] = tested on: adult Blattella germanica strain PAULINIA; experiment: whole plant or invertebrate; settings: read-out: efficacy (mortality)
Experimental: Blattella germanica Test (BLTTGE Surface Treatment & Contact Assay) • Solvent: Aceton+2000 ppm rapeseed oil methyl ester (RME)
In order to produce a sufficient, active ingredient containing solution it is necessary to solve the test compound in the solvent-mix (acetone at 2 mg/ml/RME 2000 ppm). This solution is pipetted onto a glazed tile and after evaporation of the acetone, adult animals of the species Blattella germanica strain PAULINIA are placed onto the dried surface. The exposure time is 30 minutes.
Mortality in percent (%) is determined 24 hours after contact of the insects to the treated surface. 100% mortality means that all tested insects are dead, whereas 0% means that no insect died.

[2] = tested on: green peach aphid (Myzus persicae); experiment: Myzus persicae spray test; settings: foliar, 120 h, 100 g/ha, Chinese cabbage leaf disks, after 5 days
Experimental: Myzus persicae—Spray Test • Solvent: 78.0 parts by weight acetone • 1.5 parts by weight dimethylformamide • Emulsifier: alkylarylpolyglycol ether
(§1) To produce a suitable preparation of active compound, 1 part by weight of active compound is mixed with the stated amount of solvents and is diluted with water, containing an emulsifier concentration of 1000 ppm, to the desired concentration. Further test concentrations are prepared by dilution with emulsifier containing water.
Chinese cabbage (Brassica pekinensis) leaf disks infected with all instars of the green peach aphid (Myzus persicae), are sprayed with a preparation of the active ingredient of the desired concentration.
After 5 days mortality in % is determined. 100% means all aphids have been killed and 0% means none of the aphids have been killed.

[3] = tested on: adult flies Musca domestica strain WHO-N; experiment: Musca domestica test (MUSCDO surface treatment & contact assay); settings: 24 hours after contact, read-out: efficacy (mortality); for mortality at 4 mg/m2: surface concentration 4 mg/m^2, 30 minutes exposure; for mortality at 20 mg/m2: surface concentration 20 mg/m^2, 30 minutes exposure
Summary of the method: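 Compound dissolved in acetone (2 mg/ml) with 2000 ppm rapeseed oil methyl ester and dried onto a glazed tile. Adult flies exposed to the treated surface for 30 min. Percent mortality scored 24 h after contact.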

[4] = tested on: cattle tick larvae (Rhipicephalus microplus); experiment: Rhipicephalus (Boophilus) microplus in-vitro contact test, larval cattle tick (strain Parkhurst, resistant against synthetic pyrethroids); settings: 1 μg/cm^2 (=100 g/ha), after 48 hours, read-out: efficacy (larvae dead or moribund)
Summary of the method: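 Larvae (20–50 per tube) were exposed for 48 h at 27 °C and 85% relative humidity to dried acetone residues lining glass tubes, where 900 ppm corresponds to 5 μg/cm^2. Loss of negative geotaxis defined dead or moribund larvae, expressed as percent efficacy.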

[5] = tested on: larvae of the banded cucumber beetle (Diabrotica balteata); experiment: Diabrotica balteata spray test; settings: 168 h, 100 g/ha (=32 μg/well), wheat seeds, after 7 days, read-out: efficacy (seedling growth)
Summary of the method: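 Germinated wheat seedlings (5 per well, on agar) sprayed with compound in acetone/dimethylformamide diluted in water with 1000 ppm emulsifier, then infested with 10-20 Diabrotica balteata larvae. Efficacy (%) scored after 7 days: 100% = seedling growth as untreated, uninfested control; 0% = no seedlings grown.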

[6] = tested on: adult mosquitoes Aedes aegypti strain MONHEIM; experiment: Aedes aegypti test (AEDSAE surface treatment & contact assay); settings: 24 hours after contact, read-out: efficacy (mortality); for mortality at 4 mg/m2: surface concentration 4 mg/m^2, 30 minutes exposure; for mortality at 20 mg/m2: surface concentration 20 mg/m^2, 30 minutes exposure
Summary of the method: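 Test compound dissolved in acetone (2 mg/ml) with 2000 ppm rapeseed oil methyl ester, applied to glazed tile and dried. Adult Aedes aegypti MONHEIM placed on surface for 30 min exposure; % mortality scored 24 h after contact.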

[7] = tested on: larvae of the southern green stink bug (Nezara viridula); experiment: Nezara viridula spray test; settings: 96 h, barley plants, after 4 days
Summary of the method: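 Barley plants sprayed with compound in acetone/dimethylformamide, diluted in water with 1000 ppm alkylarylpolyglycol ether emulsifier, then infested with Nezara viridula larvae. Percent mortality read after 4 days (100% = all killed, 0% = none).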

[8] = tested on: fall armyworm larvae (Spodoptera frugiperda); experiment: Spodoptera frugiperda spray test; settings: 168 h, maize leaf sections, after 7 days
Summary of the method: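 Maize leaf sections sprayed with compound in acetone/dimethylformamide, diluted in water with 1000 ppm alkylarylpolyglycol ether emulsifier. Dried sections infested with fall armyworm larvae. Mortality (%) scored after 7 days; 100% = all caterpillars killed.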

[9] = tested on: adult mosquitoes Culex quinquefasciatus strain P00; experiment: Culex quinquefasciatus test (CULXFA surface treatment & contact assay); settings: surface concentration 20 mg/m^2, 30 minutes exposure, 24 hours after contact, read-out: efficacy (mortality)
Summary of the method: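 Compound dissolved in acetone (2 mg/ml) with 2000 ppm RME and applied to glazed tile; after acetone evaporation, adults exposed to dried surface for 30 min. Percent mortality scored 24 h after contact.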

[10] = tested on: adult brown dog ticks (Rhipicephalus sanguineus); experiment: Rhipicephalus sanguineus in-vitro contact test with adult brown dog ticks; settings: 1 μg/cm^2 (=100 g/ha), after 48 hours
Experimental: Rhipicephalus sanguineus—In-Vitro Contact Tests with Adult Brown Dog Ticks
(§2) 9 mg compound is solved in 1 mL acetone and diluted with acetone to the desired concentration. 250 μL of the test solution is filled in 25 mL glass test tubes and homogeneously distributed on the inner walls by rotation and tilting on a shaking device (2 h at 30 rpm). With a compound concentration of 900 ppm, an inner surface of 44.7 cm^2 and a homogeneous distribution, a dose of 5 μg/cm^2 is achieved.
After the solvent has evaporated, each test tube is filled with 5-10 adult brown dog ticks (Rhipicephalus sanguineus), closed with a perforated lid and incubated in a lying position at room temperature and relative humidity. After 48 hours efficacy is determined. The ticks are patted on the ground of the tubes and are incubated on a heating plate at 45-50° C. for at most 5 minutes. Immotile or uncoordinated moving ticks, which are not able to escape the heat by climbing upwards, are marked as dead or moribund.
An efficacy of 100% means all ticks are dead or moribund; 0% means no ticks are dead or moribund.

[11] = tested on: brown planthopper (Nilaparvata lugens); experiment: Nilaparvata lugens spray test; settings: 96 h, rice plants, after 4 days
Experimental: Nilaparvata lugens—Spray Test • Solvent: 78.0 parts by weight of acetone • 1.5 parts by weight of dimethylformamide • Emulsifier: alkylarylpolyglycol ether
as §1
Rice plants (Oryza sativa) are sprayed with a preparation of the active ingredient of the desired concentration and the plants are infested with the brown planthopper (Nilaparvata lugens).
After 4 days mortality in % is determined. 100% means all planthoppers have been killed and 0% means none of the planthoppers have been killed.

[12] = tested on: adult cat fleas (Ctenocephalides felis); experiment: Ctenocephalides felis in-vitro contact test, adult cat flea; settings: 1 μg/cm^2 (=100 g/ha), after 48 hours
Experimental: Ctenocephalides felis—In-Vitro Contact Tests Adult Cat Flea
as §2
After the solvent has evaporated, each test tube is filled with 5-10 adult cat fleas (Ctenocephalides felis), closed with a perforated lid and incubated in a lying position at room temperature and relative humidity.
After 48 hours efficacy is determined. The fleas are patted on the ground of the tubes and are incubated on a heating plate at 45-50° C. for at most 5 minutes. Immotile or uncoordinated moving fleas, which are not able to escape the heat by climbing upwards, are marked as dead or moribund.
An efficacy of 100% means all fleas are dead or moribund; 0% means no fleas are dead or moribund.

SMILES	mortality at 20 mg/m2 [1] [%]	mortality at 100 g/ha [2] [%]	mortality at 4 mg/m2 [3] [%]	mortality at 20 mg/m2 [3] [%]	pest or weed control at 1 µg/cm2, 100 g/ha [4] [%]	pest or weed control at 32 µg/disc, 100 g/ha [5] [%]	mortality at 4 mg/m2 [6] [%]	mortality at 20 mg/m2 [6] [%]	mortality at 500 g/ha [7] [%]	mortality at 100 g/ha [8] [%]	mortality at 20 mg/m2 [9] [%]	efficacy (ticks dead or moribund) [10] [%]	mortality at 500 g/ha [11] [%]	efficacy (fleas dead or moribund) [12] [%]
CC(NC(=O)c1cc(OC(F)(F)F)cc(OC(F)(F)F)c1)c1nc2cccnc2n1-c1ncccn1 (centres unmarked) [Example I-31]	80 to 100	90	80 to 100	80 to 100	100	100	80 to 100	80 to 100	100	100	80 to 100	–	–	–
C[C@H](NC(=O)c1cc(C(F)(F)F)cc(C(F)(F)F)c1)c1nc2cccnc2n1-c1ccc(C#N)cn1 [Example I-15]	–	90	80 to 100	80 to 100	100	100	80 to 100	80 to 100	–	100	80 to 100	80	90	80

— patent US20240254121A1, “ALKYLAMIDE SUBSTITUTED, ANNULATED IMIDAZOLES AND USE THEREOF AS INSECTICIDES” (Bayer Aktiengesellschaft, priority 2021, published 2024)
